Measurements from patent EP4678638A1, “NEW E3 UBIQUITIN LIGASE LIGAND, PROTEIN DEGRADATION AGENT AND USE THEREOF” (priority 2023, dated 2024).

Biological target: T1, IRAK4 (Homo sapiens, UniProt Q9NWZ3)
T1 construct: evaluate the effects of the compounds of the present disclosure on the expression of target proteins in cells; endogenous in cells; host or cells: hPBMC
T1 sequence (Q9NWZ3 1-460): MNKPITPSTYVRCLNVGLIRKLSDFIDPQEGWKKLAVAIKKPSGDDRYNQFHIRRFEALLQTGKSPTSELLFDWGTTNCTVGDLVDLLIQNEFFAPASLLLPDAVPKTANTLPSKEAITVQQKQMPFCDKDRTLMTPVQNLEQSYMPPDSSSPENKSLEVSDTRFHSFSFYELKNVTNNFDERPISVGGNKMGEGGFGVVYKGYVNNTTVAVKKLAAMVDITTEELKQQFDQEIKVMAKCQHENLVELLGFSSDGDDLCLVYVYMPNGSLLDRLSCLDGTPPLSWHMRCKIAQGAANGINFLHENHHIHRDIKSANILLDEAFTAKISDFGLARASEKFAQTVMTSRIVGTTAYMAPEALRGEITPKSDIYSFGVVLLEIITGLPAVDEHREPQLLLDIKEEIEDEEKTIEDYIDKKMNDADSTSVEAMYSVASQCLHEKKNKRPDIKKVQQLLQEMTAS
Assay: Western blot degradation of IRAK4 (hPBMC)
Assay type: cell-based
Settings: Table D1
Description: Conventional Western blot assay was performed to evaluate the effects of the compounds of the present disclosure on the expression of target proteins in cells.
(1) Cell Seeding and Protein Harvesting: The selected cells were processed according to the cell seeding procedure and protein harvesting procedure in Table III-2. Table III-2 Cell Seeding and Protein Harvesting Procedures
(2) To the collected supernatant, 5X SDS sample loading buffer was added, followed by denaturation at 95°C for 5 minutes. The denatured samples were then separated by SDS-PAGE electrophoresis on a polyacrylamide gel. Proteins were transferred to a nitrocellulose membrane (0.45 µm NC membrane), blocked with blocking buffer at room temperature for 1 hour, and subjected to antibody incubation and development procedures according to the antibody manufacturer's instructions (Cell Signaling Technology).
Half-Maximal Degradation Concentration value (the drug concentration required for degrading proteins by 50%, abbreviated as DC50) reads method: comparing the grayscale values of Western blot bands from drug-treated samples with those from blank DMSO-treated controls, and identifying the drug concentration range at which the grayscale value is half that of the DMSO-treated control bands.
DC50 values can be calculated using ImageJ software to measure grayscale values of Western blot bands from drug-treated samples. The concentration-response curve is fitted to estimate the drug concentration corresponding to half the grayscale value.
Target protein remaining (%) refers to the percentage of target protein remaining in hPBMC cells after treatment with protein degrader compounds.
Calculation method for target protein remaining (%): Use ImageJ software to measure grayscale values of Western blot bands from drug (protein degrader)-treated samples. The grayscale value of drug-treated bands is divided by that of internal control protein bands, and the resulting quotient is normalized to obtain the relative percentage of remaining target protein after protein degrader treatment.
Target protein degradation rate (%) = 100% - target protein remaining (%).

Row | SMILES | Degradation of substrate protein IRAK4 (substrate protein remaining %)
1 | CC(C)Nc1cc(-n2ccc3cc(C#N)cnc32)ncc1C(=O)NC1CCN(Cc2ccnc(N3CCC(=O)NC3=O)c2)CC1 [GT-07409, 6-(5-cyano-1H-pyrrolo[2,3-b]pyridin-1-yl)-N-(1-((2-(2,4-dioxotetrahydropyrimidin-1(2H)-yl)pyridin-4-yl)methyl)piperidin-4-yl)-4-(isopropylamino)nicotinamide] | A (A is defined as 0% ≤ substrate protein remaining % ≤ 80%)
2 | COc1cc2nn(C3CCN(Cc4ccc(C5CCC(=O)NC5=O)cc4)CC3)cc2cc1NC(=O)c1cccc(C(F)(F)F)n1 (stereo not drawn) [GT-04761, N-(2-(1-(4-(2,6-dioxopiperidin-3-yl)benzyl)piperidin-4-yl)-6-methoxy-2H-indazol-5-yl)-6-(trifluoromethyl)picolinamide] | A (A is defined as 0% ≤ substrate protein remaining % ≤ 80%)
3 | COc1cc2nn(C3CCN(Cc4cc(N5CCC(=O)NC5=O)ncc4F)CC3)cc2cc1NC(=O)c1cccc(C(F)(F)F)c1 [GT-07414, N-(2-(1-((2-(2,4-dioxotetrahydropyrimidin-1(2H)-yl)-5-fluoropyridin-4-yl)methyl)piperidin-4-yl)-6-methoxy-2H-indazol-5-yl)-3-(trifluoromethyl)benzamide] | A (A is defined as 0% ≤ substrate protein remaining % ≤ 80%)
4 | O=C1CCC(c2ccc(CN3CCC(n4cc(NC(=O)c5coc(-c6ccnc(NCC7CC7)c6)n5)c(C(F)F)n4)CC3)cc2F)C(=O)N1 (stereo not drawn) [GT-04176, 2-(2-((cyclopropylmethyl)amino)pyridin-4-yl)-N-(3-(difluoromethyl)-1-(1-(4-(2,6-dioxopiperidin-3-yl)-3-fluorobenzyl)piperidin-4-yl)-1H-pyrazol-4-yl)oxazole-4-carboxamide] | A (A is defined as 0% ≤ substrate protein remaining % ≤ 80%)
5 | CC(C)(O)c1cc2nc(C3CCN(Cc4cccnc4C4CCC(=O)NC4=O)CC3)sc2cc1NC(=O)c1cccc(C(F)(F)F)n1 (stereo not drawn) [GT-07625, N-(2-(1-((2-(2,6-dioxopiperidin-3-yl)pyridin-3-yl)methyl)piperidin-4-yl)-5-(2-hydroxypropan-2-yl)benzo[d]thiazol-6-yl)-6-(trifluoromethyl)picolinamide] | A (A is defined as 0% ≤ substrate protein remaining % ≤ 80%)
6 | CC(C)Nc1cc(-n2ccc3cc(C#N)cnc32)ncc1C(=O)NC1CCN(Cc2ccc(C3CCC(=O)NC3=O)cn2)CC1 (stereo not drawn) [GT-07411, 6-(5-cyano-1H-pyrrolo[2,3-b]pyridin-1-yl)-N-(1-((5-(2,6-dioxopiperidin-3-yl)pyridin-2-yl)methyl)piperidin-4-yl)-4-(isopropylamino)nicotinamide] | A (A is defined as 0% ≤ substrate protein remaining % ≤ 80%)
7 | CC(C)(O)c1cc2nc(C3CCN(Cc4cccnc4C4CCC(=O)NC4=O)CC3)oc2cc1NC(=O)c1cccc(C(F)(F)F)n1 (stereo not drawn) [GT-07631, N-(2-(1-((2-(2,6-dioxopiperidin-3-yl)pyridin-3-yl)methyl)piperidin-4-yl)-5-(2-hydroxypropan-2-yl)benzo[d]oxazol-6-yl)-6-(trifluoromethyl)picolinamide] | A (A is defined as 0% ≤ substrate protein remaining % ≤ 80%)
8 | CC(C)(O)c1cc2nc(C3CCN(Cc4ccnc(C5CCC(=O)NC5=O)c4)CC3)sc2cc1NC(=O)c1cccc(C(F)(F)F)n1 (stereo not drawn) [GT-07622, N-(2-(1-((2-(2,6-dioxopiperidin-3-yl)pyridin-4-yl)methyl)piperidin-4-yl)-5-(2-hydroxypropan-2-yl)benzo[d]thiazol-6-yl)-6-(trifluoromethyl)picolinamide] | A (A is defined as 0% ≤ substrate protein remaining % ≤ 80%)
9 | CC(C)Nc1cc(-n2ccc3cc(C#N)cnc32)ncc1C(=O)NC1CCN(Cc2cncc(C3CCC(=O)NC3=O)c2)CC1 (stereo not drawn) [GT-07413, 6-(5-cyano-1H-pyrrolo[2,3-b]pyridin-1-yl)-N-(1-((5-(2,6-dioxopiperidin-3-yl)pyridin-3-yl)methyl)piperidin-4-yl)-4-(isopropylamino)nicotinamide] | A (A is defined as 0% ≤ substrate protein remaining % ≤ 80%)
10 | COc1cc2nn(C3CCN(Cc4cccc(N5CCC(=O)NC5=O)c4)CC3)cc2cc1NC(=O)c1cccc(C(F)(F)F)n1 [GT-04774, N-(2-(1-(3-(2,4-dioxotetrahydropyrimidin-1(2H)-yl)benzyl)piperidin-4-yl)-6-methoxy-2H-indazol-5-yl)-6-(trifluoromethyl)picolinamide] | A (A is defined as 0% ≤ substrate protein remaining % ≤ 80%)
11 | O=C1CCN(c2cccc(CN3CCC(n4cc(NC(=O)c5cnn6ccc(N7CCOCC7)nc56)c(C(F)F)n4)CC3)c2)C(=O)N1 [GT-04177, N-(3-(difluoromethyl)-1-(1-(3-(2,4-dioxotetrahydropyrimidin-1(2H)-yl)benzyl)piperidin-4-yl)-1H-pyrazol-4-yl)-5-morpholinopyrazolo[1,5-a]pyrimidine-3-carboxamide] | A (A is defined as 0% ≤ substrate protein remaining % ≤ 80%)
12 | COc1ccc2cn(C3CCN(Cc4ccc(C5CCC(=O)NC5=O)cc4)CC3)nc2c1NC(=O)c1cccc(C(F)(F)F)c1 (stereo not drawn) [GT-04813, N-(2-(1-(4-(2,6-dioxopiperidin-3-yl)benzyl)piperidin-4-yl)-6-methoxy-2H-indazol-7-yl)-3-(trifluoromethyl)benzamide] | A (A is defined as 0% ≤ substrate protein remaining % ≤ 80%)
13 | Cc1cc(-c2nc(C(=O)Nc3cc4oc(N5CCN(Cc6ccc(N7CCC(=O)NC7=O)cc6)CC5)nc4nc3N3CC[C@@H](O)C3)co2)ccn1 [GT-05807, (R)-N-(2-(4-(4-(2,4-dioxotetrahydropyrimidin-1(2H)-yl)benzyl)piperazin-1-yl)-5-(3-hydroxypyrrolidin-1-yl)oxazolo[4,5-b]pyridin-6-yl)-2-(2-methylpyridin-4-yl)oxazole-4-carboxamide] | A (A is defined as 0% ≤ substrate protein remaining % ≤ 80%)
14 | COc1cc2nn(C3CCN(Cc4ccnc(N5CCC(=O)NC5=O)c4)CC3)cc2cc1NC(=O)c1cccc(C(F)(F)F)n1 [GT-07532, N-(2-(1-((2-(2,4-dioxotetrahydropyrimidin-1(2H)-yl)pyridin-4-yl)methyl)piperidin-4-yl)-6-methoxy-2H-indazol-5-yl)-6-(trifluoromethyl)picolinamide] | A (A is defined as 0% ≤ substrate protein remaining % ≤ 80%)
15 | COc1cc2nn(C3CCN(Cc4cncc(N5CCC(=O)NC5=O)c4)CC3)cc2cc1NC(=O)c1cccc(C(F)(F)F)c1 [GT-07416, N-(2-(1-((5-(2,4-dioxotetrahydropyrimidin-1(2H)-yl)pyridin-3-yl)methyl)piperidin-4-yl)-6-methoxy-2H-indazol-5-yl)-3-(trifluoromethyl)benzamide] | A (A is defined as 0% ≤ substrate protein remaining % ≤ 80%)
16 | COc1ccc2cn(C3CCN(Cc4ccc(N5CCC(=O)NC5=O)nc4)CC3)nc2c1NC(=O)c1cccc(C(F)(F)F)c1 [GT-04887, N-(2-(1-((6-(2,4-dioxotetrahydropyrimidin-1(2H)-yl)pyridin-3-yl)methyl)piperidin-4-yl)-6-methoxy-2H-indazol-7-yl)-3-(trifluoromethyl)benzamide] | A (A is defined as 0% ≤ substrate protein remaining % ≤ 80%)
17 | COc1cc2nn(C3CCN(Cc4cccc(NC5CCC(=O)NC5=O)c4)CC3)cc2cc1NC(=O)c1cccc(C(F)(F)F)n1 (stereo not drawn) [GT-04763, N-(2-(1-(3-((2,6-dioxopiperidin-3-yl)amino)benzyl)piperidin-4-yl)-6-methoxy-2H-indazol-5-yl)-6-(trifluoromethyl)picolinamide] | A (A is defined as 0% ≤ substrate protein remaining % ≤ 80%)
18 | COc1cc2nn(C3CCN(Cc4cccc(N5CCC(=O)NC5=O)c4)CC3)cc2cc1NC(=O)c1cccc(C(F)(F)F)c1 [GT-04750, N-(2-(1-(3-(2,4-dioxotetrahydropyrimidin-1(2H)-yl)benzyl)piperidin-4-yl)-6-methoxy-2H-indazol-5-yl)-3-(trifluoromethyl)benzamide] | A (A is defined as 0% ≤ substrate protein remaining % ≤ 80%)
